In US7915293B2, “Ubiquitin ligase inhibitors” (Rigel Pharmaceuticals, Inc., priority 2003, dated 2011):

How the values were obtained:
Set-up in all cases: key: “+” indicates that the compound exibits inhibitory activity; “−” indicates that low or no inhibitory activity was observed
[1] = target: E3 (His-APC11/APC2-"APC") (Homo sapiens, UniProt Q9NYG5+Q9UJX6); experiment: Plate-based E3 ligase assay (APC FLAG), auto-ubiquitination; assay type: biochemical; details: 8 concentrations tested
How it was run: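 His-APC11/APC2 auto-ubiquitination was run in casein-blocked nickel plates for 1 h at room temperature, with E1 at 5 ng/well, UbcH5c at 20 ng/well and APC at 100 ng/well. Buffer was 62.5 mM Tris pH 7.6, 3 mM MgCl2, 1 mM DTT, 2.5 mM ATP and Flag-ubiquitin at 100 ng/well. Detection used anti-Flag/HRP chemiluminescence, and IC50 was typically from 6 or 8 concentrations versus a DMSO control.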

[2] = tested on: HeLa cells; experiment: Non-photographic proliferation analysis (Promega Cell titer Aqueous), HeLa; assay type: cell-based; details: 6 concentrations tested
Protocol: (§1) A549 (ATCC# CCL-185), HeLa (ATCC# CCL-2), HCT116 (ATCC# CCL-247), and H1299 (ATCC# CRL-5803) cells were maintained in T175 flasks following the ATCC recommended media and handling procedures. Flasks reaching approximately 70% confluency were trypsinized and resuspended in RPMI media (Cell-Gro catalog number 10-040-CM) modified to contain 5% FBS, 100 ug/mlPen/Strep (Cell-Gro catalog number 30-002-CL), and 0.3 mg/ml L-Glutamine (Cell-Gro catalog number 25-003-CL). A 20,000 cells/ml solution was made for plating. Cells were plated in black Packard 96 well plates by placing 100 μl per well (2,000 cells per well).
(§2) Compounds and additional media were added 24 hours after cell plating. A compound master plate was created with concentrations 500 times greater than the final concentration added to the cells. All compound testing was done in duplicate using 6.3 fold dilutions starting with 10 mM. All outside wells (and 4 internal wells) were DMSO controls. Taxol and at least one additional control were run on all plates. Three microliters of the compound master plate were added to deep well blocks containing 750 μl of RPMI media. One hundred microliters were transferred from the compound/media deep well blocks to the plated cells resulting in a 500 fold dilution of the compounds. Cells were grown at 37° C., 5% CO2 for 48 hours.
(§3) Some cell plates were treated with Promega Cell titer Aqueous 1 kit (promega—VWR catalog number G3580). In this case, 48 hours after the test compound were added, 100 μl of media were removed and 20 μl of cell titer reagent were added to all wells. Plates were incubated at 37° C. for 45 minutes prior to absorbance reads on the Wallac plate reader at 490 nm for 0.1 sec/well.

[3] = tested on: A549 cells; experiment: Non-photographic proliferation analysis (Promega Cell titer Aqueous), A549; assay type: cell-based; details: 6 concentrations tested
Protocol: as §1, §2, §3

[4] = tested on: HeLa cells; experiment: Cell proliferation assay, photographic image analysis of proliferation, apoptosis and death (PAD assay), HeLa; assay type: cell-based; details: 6 concentrations tested
Protocol: as §1, §2
Cells to be analyzed by photography were fixed and stained. One hundred microliters of media were removed and 100 μl of 9.3% […] was added to each well. Plates were left on the benchtop for 45 minutes. A staining solution containing 1.55 μl of 1 mg/ml DAPI added to 18.75 ml PBS was warmed for 15 minutes at 37° C. The cells were aspirated prior to washing with 100 μl of PBS. Seventy microliters of PBS were aspirated and 170 μl of the DAPI solution were added to each well of fixed cells. Plates were left at room temperature for one hour then aspirated and washed twice with 100 μl of PBS. The stained cells were left at 4° C. for a minimum of 16 hours before photographic analysis with Array Scan II (Cellomics). Analysis of the photographic images to determine numbers of live cells (proliferation), apoptotic cells and dead cells, were according to the methods described in U.S. Provisional Patent Application Ser. No. 60/406,714, which incorporated herein in its entirety.

[5] = tested on: A549 cells; experiment: Cell proliferation assay, photographic image analysis of proliferation, apoptosis and death (PAD assay), A549; assay type: cell-based; details: 6 concentrations tested
How it was run: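 Cells grown in RPMI with 5% FBS (2,000/well) and dosed 24 h after plating with 6.3-fold dilutions in duplicate (master plate 500× final, top 10 mM stock). After 48 h at 37 °C, cells formamide-fixed and DAPI-stained. Image analysis counted live, apoptotic and dead cells.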

Sequence of E3 (His-APC11/APC2-"APC") (Q9NYG5 whole entry): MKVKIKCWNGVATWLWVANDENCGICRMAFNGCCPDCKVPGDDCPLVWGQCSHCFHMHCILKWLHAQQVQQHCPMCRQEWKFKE
Sequence of E3 (His-APC11/APC2-"APC") (Q9UJX6 whole entry): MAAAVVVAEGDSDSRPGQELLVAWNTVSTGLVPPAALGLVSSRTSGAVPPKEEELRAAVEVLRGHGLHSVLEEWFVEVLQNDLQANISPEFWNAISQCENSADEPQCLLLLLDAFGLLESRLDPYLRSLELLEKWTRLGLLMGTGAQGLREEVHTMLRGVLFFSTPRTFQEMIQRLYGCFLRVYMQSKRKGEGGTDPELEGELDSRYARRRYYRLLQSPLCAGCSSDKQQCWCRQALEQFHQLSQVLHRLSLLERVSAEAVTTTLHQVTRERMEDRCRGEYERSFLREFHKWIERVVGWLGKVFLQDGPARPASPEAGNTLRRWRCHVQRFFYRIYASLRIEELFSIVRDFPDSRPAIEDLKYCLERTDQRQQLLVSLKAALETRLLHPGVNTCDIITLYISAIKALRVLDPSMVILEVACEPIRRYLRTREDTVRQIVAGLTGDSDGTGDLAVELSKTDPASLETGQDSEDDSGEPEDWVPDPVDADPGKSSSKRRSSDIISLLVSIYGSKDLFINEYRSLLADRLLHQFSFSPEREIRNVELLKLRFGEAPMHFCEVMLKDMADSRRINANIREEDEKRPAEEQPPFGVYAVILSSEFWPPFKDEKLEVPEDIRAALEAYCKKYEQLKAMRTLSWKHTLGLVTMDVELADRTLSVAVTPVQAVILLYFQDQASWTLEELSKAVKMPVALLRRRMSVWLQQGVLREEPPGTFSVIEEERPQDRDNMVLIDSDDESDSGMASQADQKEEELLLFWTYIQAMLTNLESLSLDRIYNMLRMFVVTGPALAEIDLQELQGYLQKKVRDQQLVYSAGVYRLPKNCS

| Compound | APC Flag 8 pt [1] | Cell Titer-Aqueous, HELA 6 pt [2] | Cell Titer-Aqueous, A549 6 pt [3] | PAD Assay, HELA 6 pt [4] | PAD Assay, A549 6 pt [5] |
| --- | --- | --- | --- | --- | --- |
| CC1(C)Oc2ccc(NS(=O)(=O)c3cc(Cl)c(Oc4ccc([N+](=O)[O-])cc4Cl)c(Cl)c3)cc2NC1=O [Example 213, 3,5-dichloro-4-(2-chloro-4-nitrophenoxy)-N-(2,2-dimethyl-3-oxo-3,4-dihydro-2H-1,4-benzoxazin-6-yl)benzenesulfonamide] | + | + | + |  |  |
| O=[N+]([O-])c1ccc(Oc2c(Cl)cc(S(=O)(=O)Nc3cccc(-c4ccccc4)c3)cc2Cl)c(Cl)c1 [Example 179, N-biphenyl-3-yl-3,5-dichloro-4-(2-chloro-4-nitrophenoxy)benzenesulfonamide] | + | + | − |  |  |
| Cc1ccc(NS(=O)(=O)c2cc(Cl)c(Oc3ccc([N+](=O)[O-])cc3Cl)c(Cl)c2)cc1I [Example 250, 3,5-dichloro-4-(2-chloro-4-nitrophenoxy)-N-(3-iodo-4-methylphenyl)benzenesulfonamide] | + |  |  | + | + |
| O=C(Nc1cccc(Cl)c1)Nc1ccc(Oc2ccc(F)cc2)c(Br)c1 [Compound 304] | + |  |  | + | + |
| O=[N+]([O-])c1ccc(Oc2ccc(S(=O)(=O)Nc3cc(Cl)ccc3Cl)cc2Cl)c(C(F)(F)F)c1 [Example 261, 3-chloro-N-(2,5-dichlorophenyl)-4-(4-nitro-2-(trifluoromethyl)phenoxy]benzene-sulfonamide] | + |  |  | + | + |
| O=S(=O)(Nc1ccc(Oc2ccc(F)cc2)c(Br)c1)c1ccc(F)cc1 [Example 283, N-[3-bRomo-4-(4-fluorophenoxy)phenyl]-4-fluorobenzenesulfonamide] | + |  |  | − | + |
| O=[N+]([O-])c1ccc(Oc2c(Cl)cc(S(=O)(=O)Nc3ccc(Oc4ccc(F)cc4)c(Br)c3)cc2Cl)c(Cl)c1 [Example 291, N-[3-bRomo-4-(4-fluorophenoxy)phenyl]-3,5-dichloro-4-(2-chloro-4-nitrophenoxy) benzenesulfonamide] | + |  |  | + | + |
| O=[N+]([O-])c1ccc(Oc2c(Cl)cc(S(=O)(=O)Nc3cccc(F)c3)cc2Cl)c(Cl)c1 [Example 232, 3,5-dichloro-4-(2-chloro-4-nitrophenoxy)-N-(3-fluorophenyl)benzenesulfonamide] | + |  |  | + | + |
| O=[N+]([O-])c1ccc(Oc2ccc(S(=O)(=O)Nc3c(F)cccc3F)cc2Cl)c(C(F)(F)F)c1 [Example 268, 3-chloro-N-(2,6-difluorophenyl)-4-[4-nitro-2-(trifluoromethyl)phenoxy]benzene-sulfonamide] | + |  |  | + | + |
| O=S(=O)(Nc1ccc(Oc2ccc(F)cc2)c(Br)c1)c1ccc(OC(F)(F)F)cc1 [Example 284, N-[3-bRomo-4-(4-fluorophenoxy)phenyl]-4-(trifluoromethoxy)benzenesulfonamide] | + |  |  | + | + |
| Cc1c(Cl)cccc1S(=O)(=O)Nc1ccc(Oc2ccc([N+](=O)[O-])cc2)cc1 [Example 274, 3-chloro-2-methyl-N-[4-(4-nitrophenoxy)phenyl]benzenesulfonamide] | + |  |  | − | + |
| Cc1ccc(Cl)cc1NS(=O)(=O)c1cc(Cl)c(Oc2ccc([N+](=O)[O-])cc2Cl)c(Cl)c1 [Example 252, 3,5-dichloro-N-(5-chloro-2-methylphenyl)-4-(2-chloro-4-nitrophenoxy)benzene-sulfonamide] | + |  |  | + | + |
| O=[N+]([O-])c1ccc(F)c(NS(=O)(=O)c2ccc(Oc3ncc(C(F)(F)F)cc3Cl)cc2)c1 [Example 258, 4-{[3-chloro-5-(trifluoromethyl)pyridin-2-yl]oxy}-N-(2-fluoro-5-nitrophenyl)benzene-sulfonamide] | + |  |  | + | + |
| O=S(=O)(Nc1c(F)cccc1F)c1ccc(Oc2ncc(C(F)(F)F)cc2Cl)cc1 [Compound 259, 4-{[3-chloro-5-(trifluoromethy)pyridin-2-yl]oxy}-N-(2,6-difluorophenyl)benzene sulfonamide] | + |  |  | − | − |
| CC(C)(C)c1cc2cc(NS(=O)(=O)c3cc(Cl)c(Oc4ccc([N+](=O)[O-])cc4Cl)c(Cl)c3)ccc2[nH]1 [Example 245, N-(2-tert-butyl-1H-indol-5-yl)-3,5-dichloro-4-(2-chloro-4-nitrophenoxy)benzene-sulfonamide] | + |  |  | + | + |
| Cc1c(Cl)cccc1S(=O)(=O)Nc1ccc(Oc2ccc(F)cc2)c(Br)c1 [Example 281, N-[3-bRomo-4-(4-fluorophenoxy)phenyl]-3-chloro-2-methylbenzenesulfonamide] | + |  |  | + | + |
| O=[N+]([O-])c1ccc(Oc2c(Cl)cc(S(=O)(=O)Nc3cccc4c3OC(F)(F)C(F)(F)O4)cc2Cl)c(Cl)c1 [Example 192, 3,5-dichloro-4-(2-chloro-4-nitrophenoxy)-N-(2,2,3,3-tetrafluoro-2,3-dihydro-1,4-benzodioxin-5-yl)benzenesulfonamide] | + |  |  | − | − |
| Cc1cc(F)ccc1NS(=O)(=O)c1cc(Cl)c(Oc2ccc([N+](=O)[O-])cc2Cl)c(Cl)c1 [Example 236, 3,5-dichloro-4-(2-chloro-4-nitrophenoxy)-N-(4-fluoro-2-methylphenyl)benzene-sulfonamide] | + |  |  | + | + |
| O=S(=O)(Nc1ccc(Oc2ncc(C(F)(F)F)cc2Cl)cc1)c1ccccc1C(F)(F)F [Example 296, N-(4-(3-chloro-5-(trifluoromethyl)pyridin-2-yloxy)phenyl)-2-(trifluoromethyl)benzenesulfonamide] | − |  |  | − | + |
| O=S(=O)(Nc1ccc(Oc2c(Cl)cc(Cl)cc2Cl)cc1)c1cc(Cl)ccc1Cl [Example 279, 2,5-dichloro-N-[4-(2,4,6-trichlorophenoxy)phenyl]benzenesulfonamide] | + |  |  | + | + |
| CC(C)(C)c1cccc(C(C)(C)C)c1NS(=O)(=O)c1cc(Cl)c(Oc2ccc([N+](=O)[O-])cc2Cl)c(Cl)c1 [Example 231, 3,5-dichloro-4-(2-chloro-4-nitrophenoxy)-N-(2,6-di-tert-butylphenyl)benzenesulfonamide] | + |  |  | + | + |
